We go through 56 molecules from PubChem BioAssay AID2742 (NMMLSC, 2010).

Activity calls are given as the source filed them.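 Rule for the calls: active = fitted half-maximal concentration for changing background-corrected GFP signal at or below a set limit; inactive = the rest.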

The nature of the experiment: modulators of MEP2-GFP levels in yeast, dose response, S. cerevisiae, flow cytometry GFP, MLPCN hits (AID 2742).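 Note: GFP tag reports level of MEP2 protein as a downstream target of TOR signalling.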 As to conditions: S. cerevisiae MEP2-GFP strain, flow cytometry fluorescence, 3 h; at 33 µM (top of the series). A general note: Flow cytometry measures light scatter and fluorescence of single cells or particles in a stream.

As to `c1ccc(-c2cccc(-c3ccccn3)n2)nc1`, the GFP fluorescence (kMESF), higher = increase is 2.86 kMESF (inactive).

Turning to `COc1ccc(C(=O)NC(=S)NNC(=O)c2cnccn2)cc1`, the GFP fluorescence (kMESF), higher = increase was 3.91 kMESF (inactive).

For the molecule `O=[N+]([O-])c1cc(CN2CCN(c3cccc(C(F)(F)F)c3)CC2)c2cccnc2c1O`, the GFP fluorescence (kMESF), higher = increase was 4.44 kMESF (inactive).

Regarding `O=C1C(Cl)=C(NCCc2ccccc2)C(=O)N1CCc1ccccc1`, the GFP fluorescence (kMESF), higher = increase is 2.91 kMESF (inactive).

`COc1ccc(C(c2c(C)[nH]n(C(N)=S)c2=O)C(C#N)C#N)cc1` (stereo unspecified): the GFP fluorescence (kMESF), higher = increase is 4.93 kMESF (inactive).

For the molecule `COc1ccc(NC2=C(Cl)C(=O)N(CCc3ccccc3)C2=O)cc1`, the GFP fluorescence (kMESF), higher = increase was 2.7 kMESF (inactive).

Take `O=C(NC(=S)NNC(=O)c1cnccn1)c1ccc(F)cc1`: the GFP fluorescence (kMESF), higher = increase is 4.26 kMESF (inactive).

As for `CCN1/C(=C/C(C)=C/c2sc3ccccc3[n+]2CC)Sc2ccccc21`, the GFP fluorescence (kMESF), higher = increase was 4.91 kMESF (inactive).

On to `O=C(Cc1ccc(Cl)cc1)NNC(=S)NC(=O)c1cccs1`, for which the GFP fluorescence (kMESF), higher = increase was 6.72 kMESF (inactive).

Regarding `COc1cc(NC(=O)c2ccc(C)cc2)ccc1NC(=O)c1cc2ccccc2o1`, the GFP fluorescence (kMESF), higher = increase is 2.3 kMESF (inactive).

Take `CCC(C)/C(C)=N/NC(=O)c1ccc(COc2ccc(Cl)c(C)c2)cc1` (stereo unspecified): the GFP fluorescence (kMESF), higher = increase is 2.48 kMESF (inactive).

As to `O=C(CSC1=NS(=O)(=O)c2ccccc21)Nc1ccccc1`, the GFP fluorescence (kMESF), higher = increase was 2.66 kMESF (inactive).

As to `CCOC(=O)CSC1=NC(=O)/C(=C/c2ccc(OC)cc2)S1`, the GFP fluorescence (kMESF), higher = increase is 1.26 kMESF (inactive).

As for `CCOC(=O)CSC1=NC(=O)/C(=C\c2ccc(Cl)cc2)S1`, the GFP fluorescence (kMESF), higher = increase was 4.12 kMESF (inactive).

For `CC(C)(C)c1cc(C(c2cccnc2)N2CCN(CCO)CC2)cc(C(C)(C)C)c1O` (stereo unspecified), the GFP fluorescence (kMESF), higher = increase is -4.66 kMESF (inactive).

For `CC(c1ccccc1)N1C(=O)/C(=C/c2ccncc2)SC1=S` (stereo unspecified), the GFP fluorescence (kMESF), higher = increase was 2.87 kMESF (inactive).

`O=C(Nc1cccc(C(F)(F)F)c1)Oc1ccc(Cl)c2cccnc12`: the GFP fluorescence (kMESF), higher = increase was 2.78 kMESF (inactive).

On to `O=C1Nc2ccccc2/C1=C\C(=O)c1ccccc1`, for which the GFP fluorescence (kMESF), higher = increase was 5.08 kMESF (inactive).

As to `O=C(NC(=S)NNC(=O)[C@H]1C[C@@H]1c1ccccc1)c1cccc(F)c1`, the GFP fluorescence (kMESF), higher = increase was 7.02 kMESF (inactive).

On to `CCn1c(=O)c(C(=O)Nc2nc3ccccc3[nH]2)c(O)c2ccccc21`, for which the GFP fluorescence (kMESF), higher = increase was 2.38 kMESF (inactive).

As for `Cc1ccc(O)c(N=Nc2nccs2)c1`, the GFP fluorescence (kMESF), higher = increase is 2.87 kMESF (inactive).

In the case of `COc1ccc(OCC(=O)NNC(=S)NC(=O)C2CCCCC2)cc1`, the GFP fluorescence (kMESF), higher = increase was 3.25 kMESF (inactive).

Take `Cc1ccccc1[C@]1(C)ON(c2ccccc2C(F)(F)F)C1=O`: the GFP fluorescence (kMESF), higher = increase is 2.17 kMESF (inactive).

For the molecule `Cc1ccccc1[C@@]1(C)ON(c2ccccc2C(F)(F)F)C1=O`, the GFP fluorescence (kMESF), higher = increase is 3.31 kMESF (inactive).

Consider `CCc1ccc2c(c1)/C(=C/C(=O)c1cccs1)C(=O)N2`, for which the GFP fluorescence (kMESF), higher = increase was 3.95 kMESF (inactive).

Take `CCOc1cc(C=C2C(=O)c3ccccc3C2=O)ccc1OCC(=O)Nc1ccc(C)cc1`: the GFP fluorescence (kMESF), higher = increase was 1.75 kMESF (inactive).

Take `O=C1CC(c2ccccc2)=NN1c1nc(-c2ccccc2)cs1`: the GFP fluorescence (kMESF), higher = increase is 2.83 kMESF (inactive).

In the case of `Cn1c(=O)c(C(=O)NNC(=O)c2ccc(Br)cc2)c(O)c2ccccc21`, the GFP fluorescence (kMESF), higher = increase was 3.4 kMESF (inactive).

For the molecule `CC(=O)Oc1ccc(N2C(=O)C3C4C=CC(O4)C3C2=O)cc1` (stereo unspecified), the GFP fluorescence (kMESF), higher = increase was 3.13 kMESF (inactive).

`Nc1ccccc1C#CC(=O)c1ccccc1`: the GFP fluorescence (kMESF), higher = increase is 6.68 kMESF (inactive).

As to `COc1cccc(/C=C/C(=O)c2c(O)cc(C)oc2=O)c1O`, the GFP fluorescence (kMESF), higher = increase is 4.26 kMESF (inactive).

As for `Cc1ccccc1N=Nc1ccc(O)c2ncccc12`, the GFP fluorescence (kMESF), higher = increase is 3.51 kMESF (inactive).

Turning to `O=C1ON=C(c2ccc(Cl)cc2)/C1=C/c1ccc(O)cc1`, the GFP fluorescence (kMESF), higher = increase is 3.61 kMESF (inactive).

On to `CC(C)(C)C(=O)NC(=S)NNC(=O)c1sc2ccccc2c1Cl`, for which the GFP fluorescence (kMESF), higher = increase was 4.68 kMESF (inactive).

With `CC(=O)Oc1ccc(/C=c2\sc3ncnn3c2=O)cc1`, the GFP fluorescence (kMESF), higher = increase was 3.91 kMESF (inactive).

Take `Cc1ccc(/C=C/C(=O)c2ccc([N+](=O)[O-])o2)cc1`: the GFP fluorescence (kMESF), higher = increase was 3.92 kMESF (inactive).

As to `Oc1ccc(Br)cc1/C=N/Nc1ccccn1`, the GFP fluorescence (kMESF), higher = increase was 3.94 kMESF (inactive).

For `CN1CCN(C(=O)c2cc(COc3c(F)cccc3F)on2)CC1c1ccccc1` (stereo unspecified), the GFP fluorescence (kMESF), higher = increase is 5.87 kMESF (inactive).

`O=C(Nc1ccc(N2CCOCC2)cc1)C1CCN(S(=O)(=O)c2ccc3c(c2)OCCO3)CC1`: the GFP fluorescence (kMESF), higher = increase is 2 kMESF (inactive).

`O=C(/C=C/Sc1ncn[nH]1)c1ccc(Cl)cc1`: the GFP fluorescence (kMESF), higher = increase is 4.24 kMESF (inactive).

Consider `Cc1cc(C)c2c(c1)/C(=C/C(=O)c1ccc(Br)s1)C(=O)N2`, for which the GFP fluorescence (kMESF), higher = increase was 3.51 kMESF (inactive).

Turning to `COc1ccc(C(=O)/C=C2/C(=O)Nc3ccccc32)c(OC)c1`, the GFP fluorescence (kMESF), higher = increase is 3.34 kMESF (inactive).

As for `O=c1c2cc(Br)ccc2nc(-c2ccc([N+](=O)[O-])cc2)n1O`, the GFP fluorescence (kMESF), higher = increase was 3.87 kMESF (inactive).

Consider `O=C1C=CC(=O)N1c1cccc(-c2ccccc2)c1`, for which the GFP fluorescence (kMESF), higher = increase is 5.31 kMESF (inactive).

Consider `O=[N+]([O-])c1cc(F)c2cccnc2c1O`, for which the GFP fluorescence (kMESF), higher = increase was 5.96 kMESF (inactive).

As for `Cc1ccc2c(nc3s/c(=C\c4ccc(-c5ccccc5C(=O)O)o4)c(=O)n32)c1C`, the GFP fluorescence (kMESF), higher = increase is 25.5 kMESF (inactive).

Turning to `CC1=NOC(=O)/C1=C\c1ccc(-c2cc(Cl)ccc2Cl)o1`, the GFP fluorescence (kMESF), higher = increase is 4.04 kMESF (inactive).

Turning to `O=C1C=CC(=O)N1c1ccc(N2CCCCC2)cc1`, the GFP fluorescence (kMESF), higher = increase was 5.69 kMESF (inactive).

With `Cc1ccc(NC(=O)c2cc(N3C(=O)C=CC3=O)ccc2Cl)cc1C`, the GFP fluorescence (kMESF), higher = increase was 5.17 kMESF (inactive).

Regarding `O=C1C=C(c2ccccc2)C(=O)N1Nc1ccccc1`, the GFP fluorescence (kMESF), higher = increase is 6.2 kMESF (inactive).

Regarding `CCSc1nnc(NC(=O)c2ccccn2)s1`, the GFP fluorescence (kMESF), higher = increase was 4.39 kMESF (inactive).

Consider `O=C(C#Cc1cccc([N+](=O)[O-])c1)c1ccccc1`, for which the GFP fluorescence (kMESF), higher = increase is 3.98 kMESF (inactive).

As for `O=C(O)c1cccc(S(=O)(=O)Nc2ccc(S(=O)(=O)N3CCOCC3)cc2)c1`, the GFP fluorescence (kMESF), higher = increase was 2.77 kMESF (inactive).

Turning to `CCCN1CCc2c(sc(NC(=S)NC(=O)c3ccccc3)c2C#N)C1`, the GFP fluorescence (kMESF), higher = increase is 4.04 kMESF (inactive).

`C[n+]1ccc(/C=C/c2c[nH]c3ccccc23)cc1`: the GFP fluorescence (kMESF), higher = increase was 7.26 kMESF (inactive).

Take `N/C(Cc1ccc(Cl)cc1Cl)=N\OC(=O)c1ccccc1`: the GFP fluorescence (kMESF), higher = increase was 2.82 kMESF (inactive).
